Measurements as given in ChEMBL document CHEMBL5370585, “Exploration and Biological Evaluation of 1,3-Diamino-7H-pyrrol[3,2-f]quinazoline Derivatives as Dihydrofolate Reductase Inhibitors” (J Med Chem, 2023).
≈ marks a conversion by molar mass, not a printed value. Calls of active or inactive are those of the source. The calls are words filed in the database; no cut-off is given here.

What was measured:
[1] = system: Staphylococcus aureus; experiment: Antibacterial activity against Staphylococcus aureus ATCC 29213 incubated for 16 to 18 hrs by CLSI based broth dilution method; format: functional; settings: time 16-18 hrs
[2] = system: Staphylococcus aureus; experiment: Antibacterial activity against methicillin-resistant Staphylococcus aureus ATCC 43300 incubated for 16 to 18 hrs by CLSI based broth dilution method; format: functional; settings: time 16-18 hrs
[3] = system: Staphylococcus epidermidis; experiment: Antibacterial activity against Staphylococcus epidermidis ATCC 12228 incubated for 16 to 18 hrs by CLSI based broth dilution method; format: functional; settings: time 16-18 hrs
[4] = system: Acinetobacter baumannii; experiment: Antibacterial activity against Acinetobacter baumannii ATCC 19606 incubated for 16 to 18 hrs by CLSI based broth dilution method; format: functional; settings: time 16-18 hrs
[5] = system: Enterococcus faecalis; experiment: Antibacterial activity against Enterococcus faecalis ATCC 29212 incubated for 16 to 18 hrs by CLSI based broth dilution method; format: functional; settings: time 16-18 hrs
[6] = system: Escherichia coli; experiment: Antibacterial activity against Escherichia coli ATCC 25922 incubated for 16 to 18 hrs by CLSI based broth dilution method; format: functional; settings: time 16-18 hrs
[7] = system: Escherichia coli; experiment: Antibacterial activity against Escherichia coli ATCC 25922 assessed as inhibition of bacterial growth at upto 8 times MIC measured upto 28 hrs by time kill curve assay; format: functional, organism-based
[8] = system: Staphylococcus aureus; experiment: Antibacterial activity against methicillin-resistant Staphylococcus aureus ATCC 43300 assessed as inhibition of bacterial growth at upto 8 times MIC measured upto 28 hrs by time kill curve assay; format: functional, organism-based
[9] = system: Staphylococcus aureus; experiment: Antibacterial activity against Staphylococcus aureus ATCC 29213 incubated for 16 to 18 hrs in absence of human plasma by CLSI based broth dilution method; format: functional; settings: time 16-18 hrs
[10] = system: Staphylococcus aureus; experiment: Antibacterial activity against Staphylococcus aureus ATCC 29213 incubated for 16 to 18 hrs in presence of human plasma by CLSI based broth dilution method; format: functional; settings: time 16-18 hrs
[11] = system: Staphylococcus aureus; experiment: Antibacterial activity against methicillin-resistant Staphylococcus aureus ATCC 43300 incubated for 16 to 18 hrs in absence of human plasma by CLSI based broth dilution method; format: functional; settings: time 16-18 hrs
[12] = system: Staphylococcus aureus; experiment: Antibacterial activity against methicillin-resistant Staphylococcus aureus ATCC 43300 incubated for 16 to 18 hrs in presence of human plasma by CLSI based broth dilution method; format: functional; settings: time 16-18 hrs
[13] = system: Escherichia coli; experiment: Antibacterial activity against Escherichia coli ATCC 25922 incubated for 16 to 18 hrs in absence of human plasma by CLSI based broth dilution method; format: functional; settings: time 16-18 hrs
[14] = system: Escherichia coli; experiment: Antibacterial activity against Escherichia coli ATCC 25922 incubated for 16 to 18 hrs in presence of human plasma by CLSI based broth dilution method; format: functional; settings: time 16-18 hrs
[15] = system: Staphylococcus aureus; experiment: Drug resistance against methicillin-resistant Staphylococcus aureus ATCC 43300 assessed as increase in MIC measured after 10 passaging for 24 hrs; format: functional, organism-based
[16] = system: MCF7; experiment: Cytotoxicity against human MCF7 cells measured after 72 hrs by MTT assay; format: functional, cell-based; settings: MCF7, 72 h
[17] = system: HGC-27; experiment: Cytotoxicity against human HGC-27 cells measured after 72 hrs by MTT assay; format: functional, cell-based; settings: HGC-27, 72 h
[18] = system: HCT-116; experiment: Cytotoxicity against human HCT-116 cells measured after 72 hrs by MTT assay; format: functional, cell-based; settings: HCT-116, 72 h
[19] = system: HepG2; experiment: Cytotoxicity against human HepG2 cells measured after 72 hrs by MTT assay; format: functional, cell-based; settings: HepG2, 72 h
[20] = Toxicity in ICR mouse assessed as median lethal dose administered as single IP dose measured upto 8 days; settings: in vivo, time < 8 day
[21] = Toxicity in ip dosed ICR mouse assessed as animal death at high dose measured upto 8 days; format: organism-based; settings: in vivo, 192 h, time < 8 day
[22] = Metabolic stability in mouse liver microsomes assessed as half life at 1 uM measured upto 60 mins in presence of NADPH by LC-MS/MS analysis; format: ADME, Microsome
[23] = Metabolic stability in mouse liver microsomes assessed as intrinsic clearance at 1 uM measured upto 60 mins in presence of NADPH by LC-MS/MS analysis; format: ADME, Microsome; settings: read-out: CLH
[24] = Metabolic stability in mouse liver microsomes assessed as hepatic clearance at 1 uM measured upto 60 mins in presence of NADPH by LC-MS/MS analysis; format: ADME, Microsome; settings: 1 h
[25] = Stability in mouse plasma assessed as parent compound remaining at 1 ug/ml measured after 10 mins by LC-MS/MS analysis; format: ADME, cell-free; settings: at 1 µg/mL, read-out: Stability
[26] = Stability in mouse plasma assessed as parent compound remaining at 1 ug/ml measured after 20 mins by LC-MS/MS analysis; format: ADME, cell-free; settings: at 1 µg/mL, read-out: Stability
[27] = Stability in mouse plasma assessed as parent compound remaining at 1 ug/ml measured after 30 mins by LC-MS/MS analysis; format: ADME, cell-free; settings: at 1 µg/mL, read-out: Stability
[28] = Stability in mouse plasma assessed as parent compound remaining at 1 ug/ml measured after 45 mins by LC-MS/MS analysis; format: ADME, cell-free; settings: at 1 µg/mL, read-out: Stability
[29] = Stability in mouse plasma assessed as parent compound remaining at 1 ug/ml measured after 60 mins by LC-MS/MS analysis; format: ADME, cell-free; settings: at 1 µg/mL, read-out: Stability
[30] = Stability in mouse plasma assessed as parent compound remaining at 1 ug/ml measured after 120 mins by LC-MS/MS analysis; format: ADME, cell-free; settings: at 1 µg/mL, read-out: Stability
[31] = Stability in mouse plasma assessed as parent compound remaining at 1 ug/ml measured after 240 mins by LC-MS/MS analysis; format: ADME, cell-free; settings: at 1 µg/mL, read-out: Stability
[32] = Stability in mouse plasma assessed as parent compound remaining at 1 ug/ml measured after 1440 mins by LC-MS/MS analysis; format: ADME, cell-free; settings: at 1 µg/mL, read-out: Stability
[33] = Stability in mouse plasma assessed as parent compound remaining at 5 ug/ml measured after 10 mins by LC-MS/MS analysis; format: ADME, cell-free; settings: at 5 µg/mL, read-out: Stability
[34] = Stability in mouse plasma assessed as parent compound remaining at 5 ug/ml measured after 20 mins by LC-MS/MS analysis; format: ADME, cell-free; settings: at 5 µg/mL, read-out: Stability
[35] = Stability in mouse plasma assessed as parent compound remaining at 5 ug/ml measured after 30 mins by LC-MS/MS analysis; format: ADME, cell-free; settings: at 5 µg/mL, read-out: Stability
[36] = Stability in mouse plasma assessed as parent compound remaining at 5 ug/ml measured after 45 mins by LC-MS/MS analysis; format: ADME, cell-free; settings: at 5 µg/mL, read-out: Stability
[37] = Stability in mouse plasma assessed as parent compound remaining at 5 ug/ml measured after 60 mins by LC-MS/MS analysis; format: ADME, cell-free; settings: at 5 µg/mL, read-out: Stability
[38] = Stability in mouse plasma assessed as parent compound remaining at 5 ug/ml measured after 120 mins by LC-MS/MS analysis; format: ADME, cell-free; settings: at 5 µg/mL, read-out: Stability
[39] = Stability in mouse plasma assessed as parent compound remaining at 5 ug/ml measured after 240 mins by LC-MS/MS analysis; format: ADME, cell-free; settings: at 5 µg/mL, read-out: Stability
[40] = Stability in mouse plasma assessed as parent compound remaining at 5 ug/ml measured after 1440 mins by LC-MS/MS analysis; format: ADME, cell-free; settings: at 5 µg/mL, read-out: Stability
[41] = Half life in ICR mouse at 10 mg/kg, ip measured after 5 to 24 hrs post administration by LC-MS/MS analysis; format: ADME, organism-based; settings: in vivo, time 5-24 hrs
[42] = AUC (0 to infinity) in ICR mouse at 10 mg/kg, ip measured after 5 to 24 hrs post administration by LC-MS/MS analysis; format: ADME, organism-based; parameters: time upper 24 hrs, dose 10 mg/kg, time lower 5 hrs, route ip; settings: in vivo
[43] = AUC (0 to t) in ICR mouse at 10 mg/kg, ip measured after 5 to 24 hrs post administration by LC-MS/MS analysis; format: ADME, organism-based; parameters: time 5-24 hrs, dose 10 mg/kg, route ip; settings: in vivo
[44] = system: Staphylococcus aureus; experiment: Antibacterial activity against Methicillin-resistant Staphylococcus aureus ATCC 43300 infected in ip dosed ICR mouse thigh infection model assessed as reduction in bacterial growth measured after 24 hrs post-treatment; format: functional, organism-based; settings: dose lower 7.5 mg/kg, dose upper […]
[45] = system: Staphylococcus aureus; experiment: Antibacterial activity against Methicillin-resistant Staphylococcus aureus ATCC 43300 infected in ICR mouse thigh infection model assessed as survival rate at 7.5 mg/kg, ip measured after 24 hrs post-treatment relative to control; format: functional
[46] = system: Staphylococcus aureus; experiment: Antibacterial activity against Methicillin-resistant Staphylococcus aureus ATCC 43300 infected in ICR mouse thigh infection model assessed as survival rate at 15 mg/kg, ip measured after 24 hrs post-treatment relative to control; format: functional

Compound: Nc1nc(N)c2c(ccc3c2ccn3Cc2ccc3scnc3c2)n1
- MIC [1]: 0.125 µg/mL (≈ 0.361 µM)
- MIC [2]: 0.016 µg/mL (≈ 0.0462 µM)
- MIC [3]: ≤ 0.004 µg/mL
- MIC [4]: 1 µg/mL (≈ 2.89 µM)
- MIC [5]: 0.03 µg/mL (≈ 0.0866 µM)
- MIC [6]: 0.06 µg/mL (≈ 0.173 µM)
- Activity [7]: Active
- Activity [8]: Active
- MIC [9]: 0.03 µg/mL (≈ 0.0866 µM)
- MIC [10]: 0.5 µg/mL
- MIC [11]: 0.016 µg/mL (≈ 0.0462 µM)
- MIC [12]: 0.5 µg/mL
- MIC [13]: 0.06 µg/mL (≈ 0.173 µM)
- MIC [14]: 0.125 µg/mL
- Activity [15]: Active
- IC50 [16]: 580 nM
- IC50 [17]: 1 nM
- IC50 [18]: 5 nM
- IC50 [19]: 120 nM
- LD50 at 192 h [20]: 283 mg/kg
- Activity [21]: Toxic
- half-life at 1 µM [22]: 0.203 h
- microsomal CLint at 1 µM [23]: 114 µL/min/mg
- CLH [24]: 74.9 mL/min/kg
- remaining at 10 min, 1 ug/ml [25]: 96.2%
- remaining at 20 min, 1 ug/ml [26]: 94.7%
- remaining at 0.5 h, 1 ug/ml [27]: 93.8%
- remaining at 0.75 h, 1 ug/ml [28]: 93.1%
- remaining at 1 h, 1 ug/ml [29]: 92.4%
- remaining at 2 h, 1 ug/ml [30]: 92.5%
- remaining at 4 h, 1 ug/ml [31]: 92.6%
- remaining at 24 h, 1 ug/ml [32]: 92.3%
- remaining at 10 min, 5 ug/ml [33]: 96.7%
- remaining at 20 min, 5 ug/ml [34]: 96%
- remaining at 0.5 h, 5 ug/ml [35]: 95.8%
- remaining at 0.75 h, 5 ug/ml [36]: 95.2%
- remaining at 1 h, 5 ug/ml [37]: 95.4%
- remaining at 2 h, 5 ug/ml [38]: 95.5%
- remaining at 4 h, 5 ug/ml [39]: 95.2%
- remaining at 24 h, 5 ug/ml [40]: 95.5%
- half-life [41]: 2.82 h
- AUC [42]: 367.6 ng·h/mL
- AUCt [43]: 2280.12 ng·h/mL
- Activity [44]: Active
- survival at 7.5 mg/kg [45]: 50%
- survival at 15 mg/kg [46]: 66%
